This passage reports IC50 and EC50 results from patent publication US8415351B2 (priority 2007, dated 2013).

The target of experiment [1] is T1, HCV polymerase 1B (Δ21 NS5B, BK) (Hepatitis C virus genotype 1b, UniProt P26663).
T1 construct: 20 to 50 nM Δ21 NS5B
The experiment is described as follows: biochemical. In a few lines:
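Δ21 NS5B (genotype 1b, BK […]) preincubated 15 min RT with inhibitor, 2 mM MnCl2, pH 7.4, 60–125 μM GTP; started with 20 μM CTP/ATP, 1 μM 3H-UTP, 5 nM template RNA, run 2–4 h RT. Spermine-precipitated RNA filter-captured, scintillation counted; IC50 from tight-binding (Morrison) fit.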

The test system of experiment [2] is genotype 1a-H77 subgenomic replicon cell line. The experiment is described as follows: microbe, parasite or virus in culture. The format is cell-based, HCV. Conditions: read-out: EC50 1a.
For experiment [3], the target named is T2, HCV polymerase 1A (Δ21 NS5B, H77) (Hepatitis C virus genotype 1a, UniProt P27958).
T2 construct: 20 to 50 nM Δ21 NS5B
T2 sequence (P27958 2421-2990, stated change not applied): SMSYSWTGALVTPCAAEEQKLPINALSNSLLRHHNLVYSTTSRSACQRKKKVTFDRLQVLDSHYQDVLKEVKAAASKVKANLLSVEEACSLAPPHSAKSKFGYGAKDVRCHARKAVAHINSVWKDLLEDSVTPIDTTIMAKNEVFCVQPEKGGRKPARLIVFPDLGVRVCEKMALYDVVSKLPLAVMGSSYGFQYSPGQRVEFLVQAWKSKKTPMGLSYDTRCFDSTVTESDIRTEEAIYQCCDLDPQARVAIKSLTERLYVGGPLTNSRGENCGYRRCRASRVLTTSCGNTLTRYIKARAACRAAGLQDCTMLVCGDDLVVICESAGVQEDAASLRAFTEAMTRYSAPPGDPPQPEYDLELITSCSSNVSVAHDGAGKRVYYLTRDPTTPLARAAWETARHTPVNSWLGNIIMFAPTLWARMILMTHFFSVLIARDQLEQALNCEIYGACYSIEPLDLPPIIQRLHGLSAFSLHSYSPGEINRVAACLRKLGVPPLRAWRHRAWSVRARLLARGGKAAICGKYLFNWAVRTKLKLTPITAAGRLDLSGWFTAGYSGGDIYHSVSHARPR
The experiment is described as follows: biochemical. An outline of the steps: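 Incorporation of 1 μM ^3H-UTP, with 20 μM each of CTP and ATP on 5 nM template RNA, ran 2–4 h at room temperature. Spermine-precipitated product was filtered and scintillation-counted. IC50 came from tight-binding non-linear regression of cpm against inhibitor concentration.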

Experiment [4] concerns genotype 1b-Con1 subgenomic replicon cell line. The experiment is described as follows: microbe, parasite or virus in culture. Conditions: read-out: EC50 1b. The format is cell-based, HCV.

One may read the IC50 as the concentration needed to halve the response being measured. By EC50 is commonly meant the concentration that produces a half-maximal response.

Read-outs that look alike come from different tables or passages of the source.

T1 sequence (P26663 2420-2989, stated change not applied): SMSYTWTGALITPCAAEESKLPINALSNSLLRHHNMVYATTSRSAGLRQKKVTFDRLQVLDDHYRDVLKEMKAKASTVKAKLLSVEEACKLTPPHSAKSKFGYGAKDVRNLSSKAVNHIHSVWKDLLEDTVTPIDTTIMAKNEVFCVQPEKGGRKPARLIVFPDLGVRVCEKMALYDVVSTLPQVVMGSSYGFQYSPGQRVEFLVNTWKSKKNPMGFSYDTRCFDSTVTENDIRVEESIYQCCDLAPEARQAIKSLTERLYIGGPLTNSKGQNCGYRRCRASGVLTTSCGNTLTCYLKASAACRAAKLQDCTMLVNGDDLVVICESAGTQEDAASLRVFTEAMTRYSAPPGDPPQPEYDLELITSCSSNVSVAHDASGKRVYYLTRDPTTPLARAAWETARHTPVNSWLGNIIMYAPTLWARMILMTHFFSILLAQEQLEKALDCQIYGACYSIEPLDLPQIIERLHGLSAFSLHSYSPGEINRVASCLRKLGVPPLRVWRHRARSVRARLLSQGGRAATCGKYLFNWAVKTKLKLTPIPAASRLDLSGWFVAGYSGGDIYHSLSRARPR

As for `COc1c(CNc2ccc(NS(C)(=O)=O)cc2)cc(N2CCC(=O)NC2=O)cc1C(C)(C)C` [IA-L9-1.4, N-(4-(3-tert-butyl-5-(2,4-dioxotetrahydropyrimidin-1(2H)-yl)-2-methoxybenzylamino)phenyl)methanesulfonamide], the IC50 fell in the range of 0.1 to 1 µM in experiment [1] and 0.01 to 0.1 µM in experiment [3] (IC50 1a). Also, the EC50 is greater than 1 µM in experiment [2] (Hepatitis C virus) and 0.1 to 1 µM in experiment [4] (Hepatitis C virus).

Turning to `COc1c(C(=O)Nc2ccc3c(c2)CCC(=O)N3)cc(N2CCC(=O)NC2=O)cc1C(C)(C)C` [IA-L3-2.4, 3-tert-butyl-5-(2,4-dioxotetrahydropyrimidin-1(2H)-yl)-2-methoxy-N-(2-oxo-1,2,3,4-tetra hydroquinolin-6-yl)benzamide], the IC50 in experiment [1] and in experiment [3] (IC50 1a) was greater than 1 µM each time. Also, the EC50 in experiment [2] (Hepatitis C virus) and in experiment [4] (Hepatitis C virus) was greater than 1 µM each time.

As for `COc1c(C#Cc2cc(F)c(NS(C)(=O)=O)cc2C)cc(N2CCC(=O)NC2=O)cc1C(C)(C)C` [IA-L2-1.20, N-(4-((3-tert-butyl-5-(2,4-dioxotetrahydropyrimidin-1(2H)-yl)-2-methoxyphenyl)ethynyl)-2-fluoro-5-methylphenyl)methanesulfonamide], the results for the IC50 in experiment [1] and in experiment [3] (IC50 1a) were 0.01 to 0.1 µM and less than 0.01 µM, respectively. Besides, the EC50 in experiment [2] (Hepatitis C virus) was 0.01 to 0.1 µM; in experiment [4] (Hepatitis C virus) it was less than 0.01 µM.

Regarding `COc1c(C(=O)Nc2scc(CNS(C)(=O)=O)c2S(N)(=O)=O)cc(N2CCC(=O)NC2=O)cc1C(C)(C)C` [IA-L3-1.90, 3-tert-butyl-5-(2,4-dioxotetrahydropyrimidin-1(2H)-yl)-2-methoxy-N-(4-(methylsulfonamidemethyl)-3-sulfamoylthiophen-2-yl)benzamide], the IC50 in experiment [1] and in experiment [3] (IC50 1a) was 0.01 to 0.1 µM in each case. The figures for the EC50 in experiment [2] (Hepatitis C virus) and in experiment [4] (Hepatitis C virus) were greater than 1 µM and 0.1 to 1 µM, respectively.

With `COc1c(-c2ccc(/C=N/NS(C)(=O)=O)cc2)cc(-n2ccc(=O)[nH]c2=O)cc1C(C)(C)C` [IB-L0-1.1, (E)-N′-((3′-tert-butyl-5′-(2,4-dioxo-3,4-dihydropyrimidin-1(2H)-yl)-2′-methoxybiphenyl-4-yl)methylene)methanesulfonohydrazide], the IC50 in experiment [1] and in experiment [3] (IC50 1a) was less than 0.01 µM each time. Also, the EC50 in experiment [2] (Hepatitis C virus) and in experiment [4] (Hepatitis C virus) was 0.01 to 0.1 µM throughout.

Take `COc1cc(NS(C)(=O)=O)ccc1/C=C/c1cc(N2CCC(=O)NC2=O)cc(C(C)(C)C)c1OC` [IA-L1-1.27, N-(4-{(E)-2-[3-tert-Butyl-5-(dioxo-tetrahydro-pyrimidin-1-yl)-2-methoxy-phenyl]-vinyl}-3-methoxy-phenyl)-methanesulfonamide]: the IC50 in experiment [1] (HCV polymerase 1b, read-out: IC50 1b) is 0.01 to 0.1 µM; in experiment [3] (read-out: IC50 1a) it was less than 0.01 µM. For the same compound, the concentration for a half-maximal effect (EC50) in experiment [2] (genotype 1a-H77 replicon, luciferase reporter) was 0.01 to 0.1 µM; in experiment [4] (genotype 1b-Con1 replicon, luciferase reporter), less than 0.01 µM.

For the compound `COc1c(C#Cc2ccc(NS(C)(=O)=O)cc2C(=O)N2CCOCC2)cc(-n2ccc(=O)[nH]c2=O)cc1C(C)(C)C` [IB-L2-1.11, N-(4-((3-tert-butyl-5-(2,4-dioxo-3,4-dihydropyrimidin-1(2H)-yl)-2-methoxyphenyl)ethynyl)-3-(morpholine-4-carbonyl)phenyl)methanesulfonamide], the IC50 in experiment [1] and in experiment [3] (IC50 1a) was 0.01 to 0.1 µM throughout. Besides, the EC50 in experiment [2] (Hepatitis C virus) was 0.1 to 1 µM; in experiment [4] (Hepatitis C virus), 0.01 to 0.1 µM.

Take `COc1c(-c2ccc3c(c2)CCC3C(C)(C)NS(C)(=O)=O)cc(-n2ccc(=O)[nH]c2=O)cc1C(C)(C)C` (stereo not drawn) [IB-L0-2.29, N-(2-(5-(3-tert-butyl-5-(2,4-dioxo-3,4-dihydropyrimidin-1(2H)-yl)-2-methoxyphenyl)-2,3-dihydro-1H-inden-1-yl)propan-2-yl)methanesulfonamide]: the IC50 in experiment [1] and in experiment [3] (IC50 1a) was 0.01 to 0.1 µM in each case. The EC50 was in the range of 0.1 to 1 µM in experiment [2] (Hepatitis C virus) and 0.01 to 0.1 µM in experiment [4] (Hepatitis C virus).

On to `CC(C)(C)c1cc(-n2ccc(=O)[nH]c2=O)cc(C(=O)Nc2ccc(NS(C)(=O)=O)cc2)c1O` [IB-L3-1.2, 3-tert-butyl-5-(2,4-dioxo-3,4-dihydropyrimidin-1(2H)-yl)-2-hydroxy-N-(4-(methylsulfonamide)phenyl)benzamide], for which the half-maximal inhibitory concentration (IC50) in experiment [1] was less than 0.01 µM; in experiment [3] (IC50 1a), 0.01 to 0.1 µM. Further, the EC50 in experiment [2] (Hepatitis C virus) lay in the range of 0.1 to 1 µM; in experiment [4] (Hepatitis C virus), 0.01 to 0.1 µM.

Turning to `COc1c(C(=O)Nc2ccc(NS(=O)(=O)Cc3ccccc3)cc2)cc(N2CCC(=O)NC2=O)cc1C(C)(C)C` [IA-L3-1.57, 3-tert-butyl-5-(2,4-dioxotetrahydropyrimidin-1(2H)-yl)-2-methoxy-N-(4-(phenylmethyl-sulfonamido)phenyl)benzamide], the IC50 in experiment [1] lay within 0.1 to 1 µM; in experiment [3] (IC50 1a), 0.01 to 0.1 µM. In addition, the EC50 in experiment [2] (Hepatitis C virus) and in experiment [4] (Hepatitis C virus) was 0.1 to 1 µM each time.

Take `COc1c(C#Cc2ccc(NS(C)(=O)=O)cn2)cc(N2CCC(=O)NC2=O)cc1C(C)(C)C` [IA-L2-1.25, N-(6-((3-tert-butyl-5-(2,4-dioxotetrahydropyrimidin-1(2H)-yl)-2-methoxyphenyl)ethynyl)pyridin-3-yl)methanesulfonamide]: the IC50 in experiment [1] was 0.01 to 0.1 µM; in experiment [3] (IC50 1a), less than 0.01 µM. Further, the EC50 in experiment [2] (Hepatitis C virus) lay in the range of 0.1 to 1 µM; in experiment [4] (Hepatitis C virus) it was 0.01 to 0.1 µM.

`CC(C)(C)c1cc(N2CCC(=O)NC2=O)cc(C(=O)Nc2ccc3c(c2)CS(=O)(=O)C3)c1O` [IA-L3-2.5, 3-tert-butyl-N-(2,2-dioxo-1,3-dihydrobenzo[c]thiophen-5-yl)-5-(2,4-dioxotetrahydropyrimidin-1(2H)-yl)-2-hydroxybenzamide]: the IC50 is 0.1 to 1 µM in experiment [1] and greater than 1 µM in experiment [3] (IC50 1a). In addition, the EC50 in experiment [2] (Hepatitis C virus) and in experiment [4] (Hepatitis C virus) was greater than 1 µM each time.

On to `COc1c(C(=O)Nc2ccc(NS(C)(=O)=O)cc2)cc(N2CCC(=O)NC2=O)cc1C(C)(C)C` [IA-L3-1.51], for which the IC50 in experiment [1] and in experiment [3] (IC50 1a) was 0.01 to 0.1 µM throughout. Also, the EC50 is 0.1 to 1 µM in experiment [2] (Hepatitis C virus) and 0.01 to 0.1 µM in experiment [4] (Hepatitis C virus).

As for `CNS(=O)(=O)Cc1ccc(NC(=O)c2cc(N3CCC(=O)NC3=O)cc(C(C)(C)C)c2O)cc1` [IA-L3-1.16, 3-tert-butyl-5-(2,4-dioxotetrahydropyrimidin-1(2H)-yl)-2-hydroxy-N-(4-(N-methylsulfamoylmethyl)phenyl)benzamide], the IC50 is 0.01 to 0.1 µM in experiment [1] and greater than 1 µM in experiment [3] (IC50 1a). In addition, the EC50 in experiment [2] (Hepatitis C virus) and in experiment [4] (Hepatitis C virus) was greater than 1 µM each time.

For the compound `CC(C)(C)c1cc(-n2ccc(=O)[nH]c2=O)cc(-c2ccc3c(CNS(C)(=O)=O)csc3c2)c1Cl` [IB-L0-2.35, N-((6-(3-tert-butyl-2-chloro-5-(2,4-dioxo-3,4-dihydropyrimidin-1(2H)-yl)phenyl)benzo[b]thiophen-3-yl)methyl)methanesulfonamide], the IC50 in experiment [1] and in experiment [3] (IC50 1a) was 0.01 to 0.1 µM each time. In addition, the EC50 in experiment [2] (Hepatitis C virus) is greater than 1 µM; in experiment [4] (Hepatitis C virus), 0.1 to 1 µM.

With `COc1c(C(=O)Nc2ccc(O)cc2)cc(N2CCC(=O)NC2=O)cc1C(C)(C)C` [IA-L3-1.33, 3-tert-butyl-5-(2,4-dioxotetrahydropyrimidin-1(2H)-yl)-N-(4-hydroxyphenyl)-2-methoxybenzamide], the values for the IC50 in experiment [1] and in experiment [3] (IC50 1a) were 0.1 to 1 µM and greater than 1 µM, respectively. The EC50 in experiment [2] (Hepatitis C virus) and in experiment [4] (Hepatitis C virus) was greater than 1 µM each time.

Take `COc1ccc(CN(c2ccc(NC(=O)c3cc(N4CCC(=O)NC4=O)cc(C(C)(C)C)c3OC)cc2)S(C)(=O)=O)cc1` [IA-L3-1.67, 3-tert-butyl-5-(2,4-dioxotetrahydropyrimidin-1(2H)-yl)-2-methoxy-N-(4-(N-(4-methoxy-benzyl)methylsulfonamido)phenyl)benzamide]: the IC50 in experiment [1] and in experiment [3] (IC50 1a) was greater than 1 µM throughout. The EC50 in experiment [2] (Hepatitis C virus) is greater than 1 µM; in experiment [4] (Hepatitis C virus), 0.1 to 1 µM.

As for `CC(C)(C)c1cc(N2CCC(=O)NC2=O)cc(C(=O)Nc2ccc(NS(=O)(=O)c3ccccc3)cc2)c1O` [IA-L3-1.10, 3-tert-butyl-5-(2,4-dioxotetrahydropyrimidin-1(2H)-yl)-2-hydroxy-N-(4-(phenylsulfon-amido)phenyl)benzamide], the IC50 in experiment [1] and in experiment [3] (IC50 1a) was 0.01 to 0.1 µM each time. For the same compound, the EC50 in experiment [2] (Hepatitis C virus) and in experiment [4] (Hepatitis C virus) was 0.1 to 1 µM in each case.

Regarding `COc1c(-c2ccc3c(c2)CC[C@H]3CNS(C)(=O)=O)cc(-n2ccc(=O)[nH]c2=O)cc1C(C)(C)C` (single isomer, unassigned) [IB-L0-2.15], the results for the IC50 in experiment [1] and in experiment [3] (IC50 1a) were 0.01 to 0.1 µM and less than 0.01 µM, respectively. The EC50 in experiment [2] (Hepatitis C virus) was in the range of 0.1 to 1 µM; in experiment [4] (Hepatitis C virus), 0.01 to 0.1 µM.

Take `COc1c(C(=O)Nc2ccc(OCC(N)=O)cc2)cc(N2CCC(=O)NC2=O)cc1C(C)(C)C` [IA-L3-1.39, N-(4-(2-amino-2-oxoethoxy)phenyl)-3-tert-butyl-5-(2,4-dioxotetrahydropyrimidin-1(2H)-yl)-2-methoxybenzamide]: the IC50 in experiment [1] is 0.1 to 1 µM; in experiment [3] (IC50 1a), greater than 1 µM. Moreover, the EC50 in experiment [2] (Hepatitis C virus) and in experiment [4] (Hepatitis C virus) was greater than 1 µM throughout.

In the case of `COc1c(C#Cc2ccc(NS(C)(=O)=O)c(OC(F)(F)F)c2)cc(N2CCC(=O)NC2=O)cc1C(C)(C)C` [IA-L2-1.17, N-(4-((3-tert-butyl-5-(2,4-dioxotetrahydropyrimidin-1(2H)-yl)-2-methoxyphenyl)ethynyl)-2-(trifluoromethoxy)phenyl)methanesulfonamide], the IC50 in experiment [1] and in experiment [3] (IC50 1a) was 0.01 to 0.1 µM throughout. Moreover, the figures for the EC50 in experiment [2] (Hepatitis C virus) and in experiment [4] (Hepatitis C virus) were 0.1 to 1 µM and 0.01 to 0.1 µM, respectively.
